Reference: US11911393B2, “Non-catalytic substrate-selective p38alpha-specific MAPK inhibitors with endothelial-stabilizing and anti-inflammatory activity, and methods of use thereof” (University of Maryland, Baltimore, priority 2016, dated 2024)
“Also recorded” adds a separate entry of the source. Read-outs that look alike come from different tables or passages of the source. Blank lines part the entries; values can stand above or below the molecule they belong to.

Key:
[1] = test system: patients with Crohn's disease; conditions: cited from earlier work
[2] = test system: IL-8-directed neutrophil TEM through HMVECLs; assay: Neutrophil transendothelial migration (TEM) assay; type: cell-based, human; conditions: HMVECLs preincubated at 39.5° C. for 6 h
HMVECL monolayers = assay: Endothelial permeability assay (10 kDa dextran flux); type: cell-based, human; conditions: for reduction of TNFα/hyperthermia-induced permeability increase: HMVECL, 10 kDa dextran, TNFα and 39.5° C. for 6 h
Method: Endothelial permeability assay: Permeability of HMVECL monolayers was assessed by measuring transendothelial flux of 10 kDa dextran conjugated to Cascade blue fluorescent dye for 30 min at 37° C. in Matrigel-coated 3 μm pore size Transwell plates.

[3] = test system: LPS/hyperthermia-induced ALI in CD1 mice; assay: Mouse i.t. LPS/FRH-induced acute lung injury model; conditions: for mice that died within 24 h: single i.p. injection of 100-1000 μg UM101, 1000 μg UM60 or 1000 μg SB203580, 30 min before i.t. 50 μg LPS and hyperthermia; for reduction of lavage neutrophil content vs. DMSO-treated controls: mouse LPS/hyperthermia ALI, 24 h
ERK2 = ERK2 (Homo sapiens, UniProt P28482); assay: DSF, binding to ERK2; conditions: for ΔTm at 100 µM / ERK2 ΔTm (° C.) @100 μM: change in melting temperature relative to DMSO control in DSF assay; for stabilization of ERK2 in DSF (binding), in words: test compounds at 10-100 μM
Chain of ERK2 (P28482 whole entry, species assumed): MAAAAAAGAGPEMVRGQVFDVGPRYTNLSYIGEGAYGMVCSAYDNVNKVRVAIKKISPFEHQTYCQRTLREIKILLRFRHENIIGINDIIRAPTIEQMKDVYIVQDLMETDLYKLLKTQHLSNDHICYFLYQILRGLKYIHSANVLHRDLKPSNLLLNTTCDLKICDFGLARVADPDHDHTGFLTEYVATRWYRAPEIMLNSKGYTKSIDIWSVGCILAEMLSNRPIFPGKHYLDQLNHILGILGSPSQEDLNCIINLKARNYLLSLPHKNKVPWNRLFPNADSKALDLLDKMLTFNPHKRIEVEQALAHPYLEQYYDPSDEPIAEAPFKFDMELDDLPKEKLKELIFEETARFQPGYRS

HMVECLs = assay: Cytotoxicity assay (MTS, LDH release); type: cell-based, human; conditions: 100 μM for 48 h
Method: Cytotoxicity of HMVECL exposed to 10-100 μM of each compound is analyzed by MTS assay (Promega), LDH release (Promega), and immunoblotting for activated caspase-3 (Cell Signaling).
Cytotoxicity assay: Cytotoxicity was monitored in parallel HMVEC-L monolayers established in 96-well culture plates using a colorimetric assay that measured reduction of 3-(4,5-dimethylthiazol-2-yl)-5-(3-carboxymethoxyphenyl)-2-(4-sulfophenyl)-2H-tetrazolium (MTS) to a formazan dye (CellTiter 96™; Promega; Madison, WI) according to the manufacturer's protocol and quantifying product formation by measuring absorption at 490 nm.

[4] = biological target: T1, unphosphorylated recombinant human p38α (Homo sapiens, UniProt Q16539); assay: Differential scanning fluorimetry (DSF), binding to p38α; conditions: for stabilization of p38α in DSF (binding), in words: DSF melting temperature, concentration series
T1 construct: made in house; host or cells: E. coli BL21
T1 sequence (Q16539 whole entry): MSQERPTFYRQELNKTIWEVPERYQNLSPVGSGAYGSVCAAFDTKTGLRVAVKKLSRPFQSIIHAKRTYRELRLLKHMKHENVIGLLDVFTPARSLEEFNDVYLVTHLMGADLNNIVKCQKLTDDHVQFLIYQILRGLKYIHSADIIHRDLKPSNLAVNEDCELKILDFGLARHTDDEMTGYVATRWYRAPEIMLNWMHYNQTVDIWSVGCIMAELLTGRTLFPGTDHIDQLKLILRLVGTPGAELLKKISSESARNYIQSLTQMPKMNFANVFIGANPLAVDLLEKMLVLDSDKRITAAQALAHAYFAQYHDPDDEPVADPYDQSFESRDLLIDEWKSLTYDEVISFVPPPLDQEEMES

p38β [5] = biological target: T2, p38β (Homo sapiens, UniProt Q15759); assay: STD-NMR, binding to p38β; conditions: 200 μM UM101, 5 μM p38 protein
T2 construct: HA (N); made in house; host or cells: E. coli BL21
T2 sequence (Q15759 whole entry): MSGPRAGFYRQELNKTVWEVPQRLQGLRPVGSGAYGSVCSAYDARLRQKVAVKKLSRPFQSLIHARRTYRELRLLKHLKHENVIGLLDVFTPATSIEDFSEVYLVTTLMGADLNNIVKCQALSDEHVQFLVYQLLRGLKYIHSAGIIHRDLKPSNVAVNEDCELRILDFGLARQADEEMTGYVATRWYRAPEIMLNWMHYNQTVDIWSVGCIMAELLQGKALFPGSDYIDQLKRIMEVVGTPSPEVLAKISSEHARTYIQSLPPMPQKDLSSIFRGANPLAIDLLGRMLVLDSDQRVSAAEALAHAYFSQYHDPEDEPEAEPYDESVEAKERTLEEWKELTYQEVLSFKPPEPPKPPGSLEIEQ
Method: (§1) Spectra were recorded on an Agilent DD2 500-MHz spectrometer equipped with a 5-mm inverse HFCN probe head at 300 K. During each transient, the protein was saturated with a series of 58 […]-shaped pulses (50 ms, 1 ms delay between pulses) using the vendor-supplied STD-ES pulse sequence, for a total saturation time of 3 seconds. The on-resonance irradiation of protein was done at 0.5 ppm and off-resonance irradiation at 30 ppm. The vendor-supplied WATERGATE pulse sequence was used to suppress the water signal in the STD spectrum. The on-resonance and off-resonance pulse sequences were subtracted internally. A total of 16,384 transients were collected for each STD experiment with a 1 second delay between acquisitions, 6000 Hz spectral width, and 1.3 second acquisition time.

[6] = biological target: T3, p38α mutant (R49K/HL107-8TF/K165R) (Homo sapiens, UniProt Q16539, H107T/K165R/L108F/R49K); assay: DSF, binding to target-disrupted p38α mutant; conditions: compared with wild-type p38α
T3 construct: made in house; host or cells: E. coli BL21
T3 sequence (Q16539 whole entry R49K/H107T/L108F/K165R): as the sequence (Q16539 whole entry) above, with R49K, H107T, L108F, K165R counted along it

[7] = test system: p38-dependent phosphorylation of MK2 and Stat-1 in HeLa cells; assay: Inhibition of substrate phosphorylation (immunoblot); type: cell-based, human; conditions: 10 μM SB203580 or 50 μM UM101 for 30 min
From the text: Cell extracts prepared in RIPA buffer containing protease and phosphatase inhibitors were resolved by SDS-PAGE, transferred to PVDF membrane, blocked with 5% nonfat dry milk, probed with primary antibodies against phosphorylated MK2 and Stat-1, and total p38α as a loading control. Bands were detected using secondary antibodies conjugated to infrared fluorophores and infrared fluorescence imaging (Odyssey; LICOR).

[8] = test system: LPS-induced cytokine expression in PMA-differentiated THP1 cells; assay: LPS-induced cytokine expression, PCR-based cytokine array; type: cell-based, human; conditions: 25 μM SB203580 or 10, 25, or 100 μM UM101
p38α = biological target: T4, p38α (Homo sapiens, UniProt Q16539); assay: STD-NMR, binding to p38α; conditions: 200 μM UM101, 5 μM p38 protein
T4 construct: made in house; host or cells: E. coli BL21
T4 sequence (Q16539 whole entry): as the sequence (Q16539 whole entry) above
Method: as §1

p38β [9] = biological target: T2, p38β; assay: DSF, binding to p38β; conditions: DSF melting temperature, concentration series
mutated p38α = biological target: T5, mutated p38α (Homo sapiens, UniProt Q16539, H107T/K165R/L108F/R49K); assay: STD-NMR, binding to mutated p38α; conditions: 200 μM UM101, 5 μM p38 protein
T5 construct: made in house; host or cells: E. coli BL21
T5 sequence (Q16539 whole entry R49K/H107T/L108F/K165R): as the sequence (Q16539 whole entry) above, with R49K, H107T, L108F, K165R counted along it
Method: as §1

rheumatoid arthritis = conditions: two trials in rheumatoid arthritis; cited from earlier work
[10] = test system: patients at-risk for ARDS; conditions: early phase IIa trial, cited from earlier work
[11] = test system: patients with hypercholesterolemia; conditions: cited from earlier work
[12] = 100 μM, change in melting temperature relative to DMSO control in DSF assay, read-out: p38α ΔTm (° C.) @100 μM
[13] = added at 100 μM, DSF, read-out: increase in melting temperature of p38α
[14] = 100 μM, change in melting temperature relative to DMSO control in DSF assay

Structure (SMILES): Cc1ccc(-n2nc(C(C)(C)C)cc2NC(=O)Nc2ccc(OCCN3CCOCC3)c3ccccc23)cc1 [BIRB 796]
clinical effect in Crohn's disease [1]: no clinical effect
serum CRP levels [1]: transiently reduced

Structure (SMILES): O=C1c2cc(S(=O)(=O)NCCO)ccc2-c2ccc(S(=O)(=O)NCCO)cc21 [UM60, N2,N7-di(2-hydroxyethyl)-9-oxo-9H-2,7-fluorenedisulfonamide]
reduction of hyperthermia-augmented neutrophil TEM ([2]; 10 μM): 18%
reduction of hyperthermia-augmented neutrophil TEM ([2]; 25 μM): 89%
reduction of hyperthermia-augmented neutrophil TEM ([2]; 50 μM): less than baseline levels
reduction of TNFα/hyperthermia-induced permeability increase (HMVECL monolayers; 10 μM): no effect
reduction of TNFα/hyperthermia-induced permeability increase (HMVECL monolayers; 25 μM): no effect
reduction of TNFα/hyperthermia-induced permeability increase (HMVECL monolayers; 100 μM): 71%
mice that died within 24 h [3]: Four of six
ΔTm at 100 µM (ERK2): 0.195 °C
stabilization of ERK2 in DSF (binding), in words (ERK2): not ERK2
toxicity in LDH release and MTS assays (HMVECLs): Neither compound was toxic
ΔTm at 100 µM [4, 12]: 0.735 °C
stabilization of p38α in DSF (binding), in words [4]: stabilized p38α
ΔTm at 100 µM [4, 13]: ~0.7 °C

Structure (SMILES): O=C(Nc1ccc(CN2CCS(=O)(=O)CC2)cc1)c1ccc(Cl)cc1 [UM101, 4-chloro-N-{4-[(1,1-dioxo-1 lambda˜6˜,4-thiazinan-4-yl)methyl]phenyl}benzamide]
interaction with p38β in STD-NMR, in words (p38β [5]): much weaker
reduction of hyperthermia-augmented neutrophil TEM ([2]; 10 μM): 95%
reduction of hyperthermia-augmented neutrophil TEM ([2]; 25 μM): less than baseline levels
reduction of hyperthermia-augmented neutrophil TEM ([2]; 50 μM): less than baseline levels
reduction of TNFα/hyperthermia-induced permeability increase (HMVECL monolayers; 10 μM): 74%
reduction of TNFα/hyperthermia-induced permeability increase (HMVECL monolayers; 25 μM): 89%
reduction of TNFα/hyperthermia-induced permeability increase (HMVECL monolayers; 100 μM): > 100%
endothelial barrier stabilization compared with SB203580, in words (HMVECL monolayers; HMVECL barrier assays (FIG. 2a, 2b)): more effectively stabilized endothelial barriers than SB203580
binding to p38α mutant with four of ten target pocket amino acids substituted, in words [6]: abrogated UM101 binding; also recorded: no UM101-binding
anisomycin-stimulated phosphorylation of MK2, in words [7]: partial inhibition of MK2 phosphorylation
anisomycin-stimulated phosphorylation of Stat-1, in words [7]: reduced
anisomycin-stimulated phosphorylation of MK2, in words ([7]; listed as UM1010): reduced
reduction of lavage neutrophil content vs. DMSO-treated controls ([3]; 100 μg i.p.): 44.4%
reduction of lavage neutrophil content vs. DMSO-treated controls ([3]; 300 μg i.p.): 49.5%
reduction of lavage neutrophil content vs. DMSO-treated controls ([3]; 500 μg i.p.): 55.3%
reduction of lavage neutrophil content vs. DMSO-treated controls ([3]; 1000 μg i.p.): 54%
tolerability and potency compared with SB203580 in experimental ALI, in words ([3]; mouse LPS/FRH-induced ALI): well tolerated and more potent than SB203580 in mitigating experimental ALI; also recorded: more potent than SB203580 in reducing neutrophil and protein accumulation in BAL
mice that died within 24 h [3]: All sixteen UM101-pretreated mice survived
LPS-stimulated genes of the array (16) whose expression was inhibited, in words [8]: inhibited expression of all SB203580-inhibited genes except TNFSF9
ΔTm at 100 µM (ERK2): 0.0175 °C
stabilization of ERK2 in DSF (binding), in words (ERK2): not ERK2
interaction with p38α in STD-NMR, in words (p38α): confirmed specific UM101 binding to p38α; also recorded: protons in both aromatic rings of UM101 interact with p38α
stabilization of p38β in DSF (binding), in words (p38β [9]): not p38β; also recorded: only stabilized p38α
toxicity in LDH release and MTS assays (HMVECLs): Neither compound was toxic
interaction with mutated p38α in STD-NMR, in words (mutated p38α): much weaker
ΔTm at 100 µM [4, 12]: 0.667 °C
stabilization of p38α in DSF (binding), in words [4]: concentration-dependent increase in melting temperature of p38α; also recorded: only stabilized p38α
ΔTm at 100 µM [4, 13]: ~0.7 °C

Structure (SMILES): NC(=O)c1ccc(N(C(N)=O)c2c(F)cccc2F)nc1-c1ccc(F)cc1F [VX-702]
proportion of treated subjects with ACR20 symptom score vs. placebo (rheumatoid arthritis): small increases

ERK2 ΔTm (° C.) @100 μM (ERK2): 0.412 °C
p38α ΔTm (° C.) @100 μM [4, 14]: −0.05 °C
Structure (SMILES): COc1ccccc1N1CCN(CCCCNS(=O)(=O)c2ccc(C)cc2)CC1 [compound 2]

ERK2 ΔTm (° C.) @100 μM (ERK2): 0.337 °C
stabilization of ERK2 in DSF (binding), in words (ERK2): also stabilized ERK2
p38α ΔTm (° C.) @100 μM [4, 14]: 0.282 °C
Structure (SMILES): O=C1NCCN1CCNS(=O)(=O)c1ccc(S(=O)(=O)c2ccccc2)s1 [compound 3]
stabilization of p38α in DSF (binding), in words [4]: concentration-dependent stabilization of p38α

ERK2 ΔTm (° C.) @100 μM (ERK2): 0.452 °C
p38α ΔTm (° C.) @100 μM [4, 14]: 0.065 °C
Structure (SMILES): CN1CCN(CC(=O)Nc2ccc(S(N)(=O)=O)cc2)CC1 [compound 4]

ERK2 ΔTm (° C.) @100 μM (ERK2): 0.628 °C
stabilization of ERK2 in DSF (binding), in words (ERK2): also stabilized ERK2
p38α ΔTm (° C.) @100 μM [4, 14]: 0.808 °C
Structure (SMILES): CN1CCN(c2ccc(CNS(=O)(=O)c3ccc(-c4ccon4)s3)cc2)CC1 [compound 5]
stabilization of p38α in DSF (binding), in words [4]: concentration-dependent stabilization of p38α

ERK2 ΔTm (° C.) @100 μM (ERK2): 0.531 °C
p38α ΔTm (° C.) @100 μM [4, 14]: −0.07 °C
Structure (SMILES): Cc1nc(-c2ccc(S(=O)(=O)NCCCN)s2)cs1 [compound 8]

ERK2 ΔTm (° C.) @100 μM (ERK2): 0.390 °C
p38α ΔTm (° C.) @100 μM [4, 14]: 0.005 °C
Structure (SMILES): CS(=O)(=O)N1CCN(c2ncccc2C(F)(F)F)CC1 [compound 13]

ERK2 ΔTm (° C.) @100 μM (ERK2): 0.444 °C
p38α ΔTm (° C.) @100 μM [4, 14]: −0.052 °C
Structure (SMILES): O=S(=O)(c1ccccc1)N(Cc1ccccn1)Cc1ccccn1 [compound 16]

ERK2 ΔTm (° C.) @100 μM (ERK2): −0.598 °C
p38α ΔTm (° C.) @100 μM [4, 14]: −0.488 °C
Structure (SMILES): O=S(=O)(NCc1csc(-c2cccs2)n1)c1ccc2c(c1)CCO2 [compound 23]

ERK2 ΔTm (° C.) @100 μM (ERK2): 0.361 °C
p38α ΔTm (° C.) @100 μM [4, 14]: −0.233 °C
Structure (SMILES): O=S(=O)(CCS(=O)(=O)c1ccccn1)c1ccc(Cl)cc1 [compound 69]

ERK2 ΔTm (° C.) @100 μM (ERK2): −1.632 °C
p38α ΔTm (° C.) @100 μM [4, 14]: −1.084 °C
Structure (SMILES): O=C(CSc1cccs1)NCCSCc1ccco1 [compound 146]

ERK2 ΔTm (° C.) @100 μM (ERK2): 0.133 °C
p38α ΔTm (° C.) @100 μM [4, 14]: −0.171 °C
Structure (SMILES): Cc1nc(S(=O)(=O)NCc2cc(F)cc3c2OCOC3)cn1C [compound 150]

Structure (SMILES): Cc1cc(F)ccc1-c1nc(NC(CO)CO)nc2c1ccc(=O)n2-c1c(F)cccc1F [dilmapimod]
serum C-reactive protein (CRP) levels ([10]; patients at-risk for ARDS): modestly reduced
safety in patients at-risk for ARDS [10]: safe at the doses administered

Structure (SMILES): Cc1c(F)cc(C(=O)NC2CC2)cc1-c1ccc(C(=O)NCC(C)(C)C)cn1 [losmapimod]
serum CRP [11]: reduced
vascular relaxation [11]: improved
